These results are taken from ChEMBL document CHEMBL1130653, “Derivatization of the C12-C13 functional groups of epothilones A, B and C” (Bioorg Med Chem Lett, 1998).

≈ marks a conversion by molar mass, not a printed value.

Assay [1] is described as follows: Cytotoxicity against L929 fibroblast cell line; Weak cytotoxic activity. It counts as functional, cell-based, Mus musculus.
Assay [2] can be described thus: Compound was tested for cytotoxicity against L929 fibroblast cell lines in mouse. It counts as functional, cell-based.

What is called IC50 is the concentration that gives 50% inhibition. A higher IC50 goes with a need for much substance.

Consider `C/C(=C\c1csc(C)n1)[C@@H]1C[C@@H]2O[C@]2(C)CCC[C@H](C)[C@H](O)[C@@H](C)C(=O)C(C)(C)[C@@H](O)CC(=O)O1` [PATUPILONE], for which the IC50 entry in assay [1] is recorded as “Weak cytotoxic activity”.
Same read-out and setting: for `C/C(=C\c1csc(C)n1)[C@@H]1C[C@@H](Cl)[C@H](O)CCC[C@H](C)[C@H](O)[C@@H](C)C(=O)C(C)(C)[C@@H](O)CC(=O)O1` the value was “Weak cytotoxic activity”; for `COC(C[C@H]1OC(=O)C[C@H](O)C(C)(C)C(=O)[C@H](C)[C@@H](O)[C@@H](C)CCC[C@H]1O)C(C)Cc1csc(C)n1` (stereo partly drawn), “Weak cytotoxic activity”; for `C/C(=C\c1csc(C)n1)[C@H]1C[C@H]2OC(=O)C[C@H](O)C(C)(C)C(=O)[C@H](C)[C@@H](O)[C@@H](C)CCC[C@H]2O1`, “Weak cytotoxic activity”.
On the same count and under the same terms, for `C/C(=C\c1csc(C)n1)[C@@H]1C[C@@H]2O[C@@H]2CCC[C@H](C)[C@H](O)[C@@H](C)C(=O)C(C)(C)[C@@H](O)CC(=O)O1` [EPOTHILONE A] the value was “Weak cytotoxic activity”.
Consider `C/C(=C\c1csc(C)n1)[C@@H]1C/C=C\CCC[C@H](C)[C@H](O)[C@@H](C)C(=O)C(C)(C)[C@@H](O)CC(=O)O1` [EPOTHILONE C], for which the half-maximal inhibitory concentration (IC50) in assay [2] is 0.1 µg/mL (≈ 0.209 µM).
For `C/C(=C\c1csc(C)n1)[C@@H](O)C[C@H]1OC(=O)C[C@H](O)C(C)(C)C(=O)[C@H](C)[C@@H](O)[C@@H](C)CCC[C@@]1(C)O`, the IC50 result in assay [1] is reported as “Weak cytotoxic activity”.
Still for that read-out and setting: for `C/C(=C\c1csc(C)n1)[C@@H]1C[C@H](O)[C@@](C)(Cl)CCC[C@H](C)[C@H](O)[C@@H](C)C(=O)C(C)(C)[C@@H](O)CC(=O)O1` the value was “Weak cytotoxic activity”.
Still for that read-out and setting: in the case of `C/C(=C\c1csc(C)n1)[C@@H]1C[C@@H](O)[C@H](O)CCC[C@H](C)[C@H](O)[C@@H](C)C(=O)C(C)(C)C(O)CC(=O)O1` (stereo partly drawn) it was “Weak cytotoxic activity”.
Regarding `C/C(=C\c1csc(C)n1)[C@@H]1CC(O)C(O)CCC[C@H](C)[C@H](O)[C@@H](C)C(=O)C(C)(C)[C@@H](O)CC(=O)O1` (stereo partly drawn), in assay [2], the half-inhibitory concentration (IC50) was > 4 µg/mL.
For the compound `C/C(=C\c1csc(C)n1)[C@@H]1C[C@@H](O)[C@@H](O)CCC[C@H](C)[C@H](O)[C@@H](C)C(=O)C(C)(C)C(O)CC(=O)O1` (stereo partly drawn), the half-inhibitory concentration (IC50) entry in assay [1] is “Weak cytotoxic activity”.
Turning to `C/C(=C\c1csc(C)n1)[C@@H]1CCCCCC[C@H](C)[C@H](O)[C@@H](C)C(=O)C(C)(C)C(O)CC(=O)O1` (stereo partly drawn), the 50% inhibitory concentration (IC50) entry in assay [1] is “Weak cytotoxic activity”.
With `Cc1nc(CC(C)C(O)C[C@H]2OC(=O)C[C@H](O)C(C)(C)C(=O)[C@H](C)[C@@H](O)[C@@H](C)CCC[C@H]2O)cs1` (stereo partly drawn), the IC50 entry in assay [1] is recorded as “Weak cytotoxic activity”.
Same read-out and setting: in the case of `C/C(=C\c1csc(C)n1)[C@H]1C[C@H]2OCC[C@H](O)C(C)(C)C(=O)[C@H](C)[C@@H](O)[C@@H](C)CCC[C@H]2O1` it was “Weak cytotoxic activity”.
The same measure, in the same setting: for `C/C(=C\c1csc(C)n1)[C@@H]1C[C@H](O)[C@@](C)(O)CCC[C@H](C)[C@H](O)[C@@H](C)C(=O)C(C)(C)C(O)CC(=O)O1` (stereo partly drawn) the value was “Weak cytotoxic activity”; for `C/C(=C\c1csc(C)n1)[C@@H]1C[C@H](O)[C@@H](Cl)CCC[C@H](C)[C@H](O)[C@@H](C)C(=O)C(C)(C)[C@@H](O)CC(=O)O1`, “Weak cytotoxic activity”.
For `C/C(=C\c1csc(C)n1)[C@@H]1CC2OC(C)(C)OC2CCC[C@H](C)[C@H](O)[C@@H](C)C(=O)C(C)(C)[C@@H](O)CC(=O)O1` (stereo partly drawn), the IC50 in assay [2] was determined as 0.15 µg/mL (≈ 0.272 µM).
In the case of `C/C(=C\c1csc(C)n1)[C@@H]1C[C@H]2OCC[C@H](O)C(C)(C)C(=O)[C@H](C)[C@@H](O)[C@@H](C)CCC[C@H]2O1`, the half-inhibitory concentration (IC50) result in assay [1] was “Weak cytotoxic activity”.
As for `C/C(=C\c1csc(C)n1)[C@H](O)C[C@H]1OC(=O)C[C@H](O)C(C)(C)C(=O)[C@H](C)[C@@H](O)[C@@H](C)CCC[C@@]1(C)O`, in assay [1], the IC50 result is recorded as “Weak cytotoxic activity”.
For `C/C(=C\c1csc(C)n1)[C@@H]1C[C@H](O)[C@@]2(C)CCC[C@H](C)[C@H](O)[C@@H](C)C(=O)C(C)(C)C(CC(=O)O1)O2`, the half-inhibitory concentration (IC50) result in assay [1] is on record as “Weak cytotoxic activity”.
With `C/C(=C\c1csc(C)n1)[C@@H]1C[C@H](O)[C@H](O)CCC[C@H](C)[C@H](O)[C@@H](C)C(=O)C(C)(C)C(O)CC(=O)O1` (stereo partly drawn), the 50% inhibitory concentration (IC50) entry in assay [1] is on record as “Weak cytotoxic activity”.
For the compound `C/C(=C\c1csc(C)n1)[C@@H]1C[C@H]2OC(=O)C[C@H](O)C(C)(C)C(=O)[C@H](C)[C@@H](O)[C@@H](C)CCC[C@H]2O1`, the 50% inhibitory concentration (IC50) entry in assay [1] was “Weak cytotoxic activity”.
Still for that read-out and setting: in the case of `C/C(=C\c1csc(C)n1)[C@@H]1C[C@@H]2OC(C)(C)O[C@@H]2CCC[C@H](C)[C@H](O)[C@@H](C)C(=O)C(C)(C)C(O)CC(=O)O1` (stereo partly drawn) it was “Weak cytotoxic activity”.
